Publication PMC6225228, “Design, Synthesis and Evaluation of N-pyrazinylbenzamides as Potential Antimycobacterial Agents” (Molecules : A Journal of Synthetic Chemistry and Natural …, 2018)
In brackets after ≈: the same amount, converted by molar mass. Where two headings read alike, the source gives them in different places.

What was measured:
[1] = test system: Pseudomonas aeruginosa CCM 1961; test: Antibacterial microdilution broth, PA; type: cell-based; conditions: Pseudomonas aeruginosa, read-out: MIC PA
[2] = test system: Trichophyton interdigitale 445; test: Antifungal microdilution broth, TI; type: cell-based; conditions: read-out: MIC TI
[3] = test system: M. kansasii CNCTC My 235/80 (ATCC 12478); test: Antimycobacterial microdilution MABA, M. kansasii; type: cell-based, Mycobacterium kansasii; conditions: Mycobacterium kansasii, ATCC12478, pH 6.6, read-out: M. kans. ATCC 12478 MIC, Middlebrook 7H9 with OADC, pH 6.6, MABA
[4] = test system: Staphylococcus aureus H 5996/08 methicillin resistant; test: microbe, parasite or virus in culture; type: cell-based; conditions: for MIC: Staphylococcus aureus, MRSA, read-out: MIC MRSA
[5] = test system: Mycobacterium smegmatis CCM 4622 (ATCC 607); test: Antimycobacterial microdilution, M. smegmatis; type: cell-based; conditions: Mycolicibacterium smegmatis, read-out: M. smeg. ATCC 607 MIC
[6] = test system: Lichtheimia corymbifera 272; test: Antifungal microdilution broth, LC; type: cell-based; conditions: read-out: MIC LC
[7] = test system: Staphylococcus epidermidis H 6966/08; test: Antibacterial microdilution broth, SE; type: cell-based; conditions: read-out: MIC SE
Trichosporon asahii 1188 = test: Antifungal microdilution broth, TA; type: cell-based; conditions: read-out: MIC TA
Candida tropicalis 156 = test: Antifungal microdilution broth, CT; type: cell-based; conditions: read-out: MIC CT
[8] = test system: Escherichia coli CCM 4517; test: Antibacterial microdilution broth, EC; type: cell-based; conditions: Escherichia coli, read-out: MIC EC
[9] = test system: Enterococcus sp. J 14365/08; test: Antibacterial microdilution broth, EF; type: cell-based; conditions: Enterococcus, read-out: MIC EF
Candida krusei E28 = test: Antifungal microdilution broth, CK; type: cell-based; conditions: Pichia kudriavzevii, read-out: MIC CK
[10] = test system: Mycobacterium tuberculosis H37Rv CNCTC My 331/88 (ATCC 27294); test: Antimycobacterial microdilution MABA, M. tuberculosis; type: cell-based; conditions: for Mtb H37Rv ATCC 27294 MIC: Middlebrook 7H9 with OADC growth supplement, pH = 6.6, MABA; for MIC: Mycobacterium tuberculosis, read-out: Mtb H37Rv ATCC 27294 MIC, Middlebrook 7H9 with OADC growth supplement, pH = 6.6, MABA
[11] = test system: M. avium ssp. avium CNCTC My 80/72 (ATCC 15769); test: Antimycobacterial microdilution MABA, M. avium; type: cell-based, Mycobacterium avium; conditions: Mycobacterium avium, ATCC15769, pH 6.6, read-out: M. avium ATCC 15769 MIC
[12] = test system: Candida albicans ATCC 44859; test: Antifungal microdilution broth, CA; type: cell-based; conditions: Candida albicans, read-out: MIC CA
[13] = test system: Staphylococcus aureus CCM 4516/08; test: Antibacterial microdilution broth, SA; type: cell-based
Candida glabrata 20/I = test: Antifungal microdilution broth, CG; type: cell-based; conditions: Nakaseomyces glabratus, 20/I, read-out: MIC CG
[14] = test system: Aspergillus fumigatus 231; test: Antifungal microdilution broth, AF; type: cell-based; conditions: read-out: MIC AF
[15] = Trichophyton interdigitale, 445, 72 h
[16] = Trichophyton interdigitale, 445, 120 h
[17] = Lichtheimia corymbifera, 272, 24 h
[18] = Lichtheimia corymbifera, 272, 48 h
[19] = Staphylococcus epidermidis, H6966/08, 24 h
[20] = Staphylococcus epidermidis, H6966/08, 48 h
[21] = Trichosporon asahii, 1188, 24 h
[22] = Trichosporon asahii, 1188, 48 h
[23] = Staphylococcus aureus, CCM4516, 24 h, read-out: MIC SA, 24 h
[24] = Staphylococcus aureus, CCM4516, 48 h, read-out: MIC SA, 48 h
[25] = Aspergillus fumigatus, 231, 24 h
[26] = Aspergillus fumigatus, 231, 48 h

O=C(Nc1cncc(Cl)n1)c1ccccc1Cl [Compound 3j]
MIC ([1]; CCM1961, 72 h): > 500 µM
MIC ([1]; CCM1961, 120 h): > 500 µM
MIC [2, 15]: > 500 µM
MIC [2, 16]: > 500 µM
MIC [3]: > 100 µg/mL
MIC ([4]; 24 h): > 500 µM
MIC ([4]; 48 h): > 500 µM
MIC [5]: ≥ 500 µg/mL
MIC [6, 17]: > 500 µM
MIC [6, 18]: > 500 µM
MIC [7, 19]: > 500 µM
MIC [7, 20]: > 500 µM
MIC (Trichosporon asahii 1188; [21]): > 500 µM
MIC (Trichosporon asahii 1188; [22]): > 500 µM
MIC (Candida tropicalis 156; Candida tropicalis, 156, 24 h): > 500 µM
MIC (Candida tropicalis 156; Candida tropicalis, 156, 48 h): > 500 µM
MIC ([8]; CCM4517, 24 h): > 500 µM
MIC ([8]; CCM4517, 48 h): > 500 µM
MIC ([9]; SP.J14365/08, 24 h): > 500 µM
MIC ([9]; SP.J14365/08, 48 h): > 500 µM
MIC (Candida krusei E28; E28, 24 h): > 500 µM
MIC (Candida krusei E28; E28, 48 h): > 500 µM
Mtb H37Rv ATCC 27294 MIC [10]: >100 µg/mL
MIC [10]: > 100 µg/mL
MIC [11]: > 100 µg/mL
MIC ([12]; ATCC44859, 24 h): > 500 µM
MIC ([12]; ATCC44859, 48 h): > 500 µM
MIC [13, 23]: > 500 µM
MIC [13, 24]: > 500 µM
MIC (Candida glabrata 20/I; 24 h): > 500 µM
MIC (Candida glabrata 20/I; 48 h): > 500 µM
MIC [14, 25]: > 500 µM
MIC [14, 26]: > 500 µM

COc1cccc(C(=O)Nc2cnccn2)c1 [Compound 1f]
MIC ([1]; CCM1961, 72 h): > 500 µM
MIC ([1]; CCM1961, 120 h): > 500 µM
MIC [2, 15]: > 500 µM
MIC [2, 16]: > 500 µM
MIC [3]: > 100 µg/mL
MIC ([4]; 24 h): > 500 µM
MIC ([4]; 48 h): > 500 µM
MIC [5]: ≥ 500 µg/mL
MIC [6, 17]: > 500 µM
MIC [6, 18]: > 500 µM
MIC [7, 19]: > 500 µM
MIC [7, 20]: > 500 µM
MIC (Trichosporon asahii 1188; [21]): > 500 µM
MIC (Trichosporon asahii 1188; [22]): > 500 µM
MIC (Candida tropicalis 156; Candida tropicalis, 156, 24 h): > 500 µM
MIC (Candida tropicalis 156; Candida tropicalis, 156, 48 h): > 500 µM
MIC ([8]; CCM4517, 24 h): > 500 µM
MIC ([8]; CCM4517, 48 h): > 500 µM
MIC ([9]; SP.J14365/08, 24 h): > 500 µM
MIC ([9]; SP.J14365/08, 48 h): > 500 µM
MIC (Candida krusei E28; E28, 24 h): > 500 µM
MIC (Candida krusei E28; E28, 48 h): > 500 µM
Mtb H37Rv ATCC 27294 MIC [10]: >100 µg/mL
MIC [10]: > 100 µg/mL
MIC [11]: > 100 µg/mL
MIC ([12]; ATCC44859, 24 h): > 500 µM
MIC ([12]; ATCC44859, 48 h): > 500 µM
MIC [13, 23]: > 500 µM
MIC [13, 24]: > 500 µM
MIC (Candida glabrata 20/I; 24 h): > 500 µM
MIC (Candida glabrata 20/I; 48 h): > 500 µM
MIC [14, 25]: > 500 µM
MIC [14, 26]: > 500 µM

O=C(Nc1cnc(Cl)cn1)c1ccccc1Cl [Compound 2j]
MIC ([1]; CCM1961, 72 h): > 500 µM
MIC ([1]; CCM1961, 120 h): > 500 µM
MIC [2, 15]: > 500 µM
MIC [2, 16]: > 500 µM
MIC [3]: > 100 µg/mL
MIC MRSA ([4]; 24 h): >500 µM
MIC MRSA ([4]; 48 h): >500 µM
MIC ([4]; 24 h): > 500 µM
MIC ([4]; 48 h): > 500 µM
MIC [5]: ≥ 500 µg/mL
MIC [6, 17]: > 500 µM
MIC [6, 18]: > 500 µM
MIC ([7]; 24 h): >500 µM
MIC ([7]; 48 h): >500 µM
MIC [7, 19]: > 500 µM
MIC [7, 20]: > 500 µM
MIC (Trichosporon asahii 1188; [21]): > 500 µM
MIC (Trichosporon asahii 1188; [22]): > 500 µM
MIC (Candida tropicalis 156; Candida tropicalis, 156, 24 h): > 500 µM
MIC (Candida tropicalis 156; Candida tropicalis, 156, 48 h): > 500 µM
MIC ([8]; CCM4517, 24 h): > 500 µM
MIC ([8]; CCM4517, 48 h): > 500 µM
MIC ([9]; SP.J14365/08, 24 h): > 500 µM
MIC ([9]; SP.J14365/08, 48 h): > 500 µM
MIC (Candida krusei E28; E28, 24 h): > 500 µM
MIC (Candida krusei E28; E28, 48 h): > 500 µM
Mtb H37Rv ATCC 27294 MIC [10]: >100 µg/mL
MIC [10]: > 100 µg/mL
MIC [11]: > 100 µg/mL
MIC ([12]; ATCC44859, 24 h): > 500 µM
MIC ([12]; ATCC44859, 48 h): > 500 µM
MIC ([13]; 24 h, read-out: MIC SA): 62.50 µM (≈ 16.8 µg/mL)
MIC ([13]; 48 h, read-out: MIC SA): 62.50 µM (≈ 16.8 µg/mL)
MIC [13, 23]: 62.5 µM (≈ 16.8 µg/mL)
MIC [13, 24]: 62.5 µM (≈ 16.8 µg/mL)
MIC (Candida glabrata 20/I; 24 h): > 500 µM
MIC (Candida glabrata 20/I; 48 h): > 500 µM
MIC [14, 25]: > 500 µM
MIC [14, 26]: > 500 µM
